From patent US20050148614A1 (priority 1997, published 2005)

Columns and labels:
[1] = system: amnesia induced by the injection of vincristine; test: Evaluation test of the social memory in the rat after lesions caused by injection of vincristine; assay type: in vivo; conditions: vincristine-lesioned rats
Method: In this model, the effects are evaluated of the products tested on amnesia induced by the injection of vincristine which induces biochemical alterations similar to the changes present in Alzheimer's disease.
The procedures used in this model, lesions caused by vincristine as well as the evaluation of the social memory are described in EP 655247.
Evaluation Test of the Social Memory in the Rat.
The dose of 1 mg/kg i.p. of tacrine is then administered to the two groups of rats.

[2] = system: amnesia induced by the injection of vincristine; conditions: vincristine-lesioned rats; as described in EP 655247; cited from earlier work

Row | Structure (SMILES) | recovery of memory ([1]; solvent then tacrine 1 mg/kg i.p. (control group)) | efficacious dose (functional recovery of memory) [2] [mg/kg] | functional recovery in terms of memory ([1]; SR 57746A alone at 5 mg/kg p.o.)
1 | Nc1c2c(nc3ccccc13)CCCC2 [tacrine, reference compound] | no recovery of memory | – | –
2 | Cl.FC(F)(F)c1cccc(C2=CCN(CCc3ccc4ccccc4c3)CC2)c1 [SR 57746A, 1-(2-naphth-2-ylethyl)-4-(3-trifluoromethylphenyl)-1,2,3,6-tetrahydropyridine hydrochloride] | – | 10 | insufficient to permit functional recovery in terms of memory
